Measurements published in patent publication US20260317324A1, “BIFUNCTIONAL COMPOUNDS FOR DEGRADING BRAF VIA UBIQUITIN PROTEOSOME PATHWAY” (Nurix Therapeutics, Inc., priority 2023, published 2026).

Columns and labels:
Type in all cases: cell-based
BRAF D594G = molecular target: T1, BRAF D594G (Homo sapiens, UniProt P15056, D594G); test: BRAF HiBiT degradation assay, C-terminal HiBiT-tagged BRAF D594G overexpressed in HCT-116 BRAF−/− cells (clone 63), Nano-Glo HiBiT Lytic assay
T1 construct: Horizon Discovery (HCT-116 BRAF−/− cells); host or cells: HCT-116 BRAF−/− cells, clone 63, lentiviral transduction
T1 sequence (P15056 whole entry D594G): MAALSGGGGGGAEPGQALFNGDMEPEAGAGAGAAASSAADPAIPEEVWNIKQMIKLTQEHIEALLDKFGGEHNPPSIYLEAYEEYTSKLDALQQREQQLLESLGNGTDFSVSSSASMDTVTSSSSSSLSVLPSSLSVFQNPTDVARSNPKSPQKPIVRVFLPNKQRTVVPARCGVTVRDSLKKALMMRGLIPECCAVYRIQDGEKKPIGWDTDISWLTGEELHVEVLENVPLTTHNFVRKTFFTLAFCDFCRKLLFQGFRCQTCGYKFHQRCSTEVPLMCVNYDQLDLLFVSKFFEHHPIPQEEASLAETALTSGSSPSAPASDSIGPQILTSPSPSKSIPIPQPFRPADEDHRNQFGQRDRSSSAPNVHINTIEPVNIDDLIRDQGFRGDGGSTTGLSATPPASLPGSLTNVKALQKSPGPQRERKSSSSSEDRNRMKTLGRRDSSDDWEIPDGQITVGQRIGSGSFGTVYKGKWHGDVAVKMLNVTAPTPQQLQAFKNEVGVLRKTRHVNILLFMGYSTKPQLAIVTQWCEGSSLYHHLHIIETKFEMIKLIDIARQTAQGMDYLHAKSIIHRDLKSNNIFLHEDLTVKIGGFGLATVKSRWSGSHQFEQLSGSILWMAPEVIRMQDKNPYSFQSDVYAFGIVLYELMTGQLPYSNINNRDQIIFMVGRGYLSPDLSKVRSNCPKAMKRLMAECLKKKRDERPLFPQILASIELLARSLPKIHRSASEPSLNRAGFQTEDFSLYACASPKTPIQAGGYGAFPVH
Source text: (§1) An A375 cell line expressing a homozygous V600E mutation was purchased from ATCC (Manassas, VA, USA). An A375 clone 1F10 cell line with an endogenous C-terminal HiBiT fusion tag on BRAF V600E allele was generated internally using CRISPR-Cas9 technology and cultured in DMEM, high glucose supplemented with 10% FBS and 1× GlutaMAX. A HCT-116 BRAF−/− cell line overexpressing the C-terminal HiBiT-tagged G466V, G469A, and D594G mutants were generated by lentiviral transduction, externally at Biosettia Inc (San Diego, CA, USA). The stably transfected cells were cultured in RPMI media supplemented with 10% FBS, 1× GlutaMAX, and 0.25 μg/ml puromycin. DMEM medium, RPMI 1640 medium, GlutaMAX, fetal bovine serum (FBS), and puromycin were purchased from Gibco (Grand Island, NY, USA). HCT-116 BRAF−/− cells were purchased from Horizon Discovery (Waterbeach, UK).
(§2) The C-terminal HiBiT tagged mutant BRAF G466V, G469A, and D594G overexpressed in HCT-116 BRAF−/− cells (monoclonal cell line, cell clones 8, 34, and 63, respectively) were seeded at the density of 3,000 cells/well in 30 μL media (RPMI supplemented with 10% FBS and 1× GlutaMAX) in white opaque 384-well plates (Corning #3570) from column 1 to column 23. Wildtype HCT-116 BRAF cells were seeded in column 24 at the same cell density in 30 μL media. Cells were incubated at 37° C. with 5% CO2 for 24 h.
(§3) Intermediate compound dilution series (5-point, ranging from 5 mM to 0.5 μM, 10-fold dilutions in DMSO) were prepared in a source plate (Beckman Coulter cat. no. 001-16128). Final compound dilution series (11-point, ranging from 1 μM to 0.01 nM, half-log dilutions in DMSO) were stamped into the assay plate (Corning #3570, column 1-11 and 12-22) using the Echo Acoustic Liquid Handler (Beckman Coulter). Each compound was plated in duplicate, and the total volume of compound DMSO solution was 60 nL/well (0.2% final DMSO concentration). DMSO was included in wells A23-L23 and A24-L24. The DMSO-treated HiBiT-tagged samples served as Negative Control (NC) and the DMSO-treated wildtype samples served as Background Control (BC) for the HiBiT assay.
(§4) HiBiT signal was measured by a Nano-Glo HiBiT Lytic assay (Promega cat. no. N3050). HiBiT lytic detection reagent (Nano-Glo HiBiT Lytic Buffer with 1:50 Nano-Glo HiBiT Lytic Substrate and 1:100 LgBiT Protein, 40 μL) was added using Bravo. The mixture was incubated at room temperature, in the dark, and with gentle shaking for 10 min. Luminesce units (LU) were read on an EnVision plate reader 2105 (Perkin Elmer).
(§5) Percent protein remaining and viability remaining per sample were calculated as follows: […]
(§6) % Protein remaining values were plotted as a function of compound concentration. XC50 (DC50) values were determined by fitting curves using the following equation:
(§7) For the HiBiT degradation assay, the key parameters reported include: • The dose of compound that produces 50% degradation (DC50 at 50%): • DC50 at 50%: the Fitted X value (Conc.) at Y=50 (response) • Observed Dmax (Obs. Dmax) is the percentage protein degraded at maximal compound effect relative to DMSO-treated control: […]

BRAF G466V = molecular target: T2, BRAF G466V (Homo sapiens, UniProt P15056, G466V); test: BRAF HiBiT degradation assay, C-terminal HiBiT-tagged BRAF G466V overexpressed in HCT-116 BRAF−/− cells (clone 8), Nano-Glo HiBiT Lytic assay
T2 construct: Horizon Discovery (HCT-116 BRAF−/− cells); host or cells: HCT-116 BRAF−/− cells, clone 8, lentiviral transduction
T2 sequence (P15056 whole entry G466V): as the sequence (P15056 whole entry D594G) above, with G466V, G594D counted along it
Source text: as §1, §2, §3, §4, §5, §6, §7

BRAF V600E = molecular target: T3, BRAF V600E (Homo sapiens, UniProt P15056, V600E); test: BRAF HiBiT degradation assay, C-terminal HiBiT-tagged BRAF V600E A375 cells (clone 1F10), Nano-Glo HiBiT Lytic assay; conditions: for Dmax: A-375
T3 construct: endogenous C-terminal HiBiT fusion tag on BRAF V600E allele; endogenous in cells; host or cells: A375 clone 1F10 (CRISPR-Cas9 knock-in of the HiBiT tag; parental A375 from ATCC)
T3 sequence (P15056 whole entry V600E, the tested form may be a part): as the sequence (P15056 whole entry D594G) above, with G594D, V600E counted along it
Summary of the method: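 A375 cells (clone 1F10, endogenous C-terminal HiBiT on BRAF V600E) were seeded at 10,000 cells/well, grown 24 h, then dosed in duplicate with an 11-point series from 1 μM to 0.01 nM (0.2% DMSO). Nano-Glo HiBiT lytic luminescence was normalised to DMSO and wildtype-A375 background; DC50 was read at 50% protein remaining, alongside observed Dmax.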

BRAF G469A = molecular target: T4, BRAF G469A (Homo sapiens, UniProt P15056, G469A); test: BRAF HiBiT degradation assay, C-terminal HiBiT-tagged BRAF G469A overexpressed in HCT-116 BRAF−/− cells (clone 34), Nano-Glo HiBiT Lytic assay
T4 construct: Horizon Discovery (HCT-116 BRAF−/− cells); host or cells: HCT-116 BRAF−/− cells, clone 34, lentiviral transduction
T4 sequence (P15056 whole entry G469A): as the sequence (P15056 whole entry D594G) above, with G469A, G594D counted along it
Source text: as §1, §2, §3, §4, §5, §6, §7

[1] = BRAF D594G (Class 3), HCT-116 BRAF−/− cells, DC50 at 50% degradation
[2] = BRAF D594G (Class 3), HCT-116 BRAF−/− cells, observed Dmax relative to DMSO control
[3] = BRAF G466V (Class 3), HCT-116 BRAF−/− cells, DC50 at 50% degradation
[4] = BRAF G466V (Class 3), HCT-116 BRAF−/− cells, observed Dmax relative to DMSO control
[5] = A375 (BRAF V600E, Class 1), DC50 at 50% degradation
[6] = A375 (BRAF V600E, Class 1), observed Dmax, % protein degraded relative to DMSO control
[7] = BRAF G469A (Class 2), HCT-116 BRAF−/− cells, DC50 at 50% degradation
[8] = BRAF G469A (Class 2), HCT-116 BRAF−/− cells, observed Dmax relative to DMSO control
[9] = BRAF D594G, DC50 at 50%: fitted conc. at Y=50
[10] = HCT-116, BRAF D594G, percentage protein degraded at maximal compound effect relative to DMSO
[11] = BRAF G466V, DC50 at 50%: fitted conc. at Y=50
[12] = HCT-116, BRAF G466V, percentage protein degraded at maximal compound effect relative to DMSO
[13] = A375 (BRAF V600E), DC50 at 50%: fitted conc. at Y=50
[14] = A375 (BRAF V600E), percentage protein degraded at maximal compound effect relative to DMSO
[15] = Class 2, BRAF G469A, DC50 at 50%: fitted conc. at Y=50
[16] = HCT-116, Class 2, BRAF G469A, percentage protein degraded at maximal compound effect relative to DMSO

O=C1CC[C@H](c2ccc(N3CCC(CN4CCN(c5ccc(-n6cc(-c7cc(F)cc(NS(=O)(=O)N8CC[C@@H](F)C8)c7F)c(-c7ccncc7)n6)nc5)CC4)CC3)cc2)C(=O)N1 [Compound 302, (3R)—N-{3-[1-(5-{4-[(1-{4-[(3R)-2,6-dioxopiperidin-3-yl]phenyl}piperidin-4-yl)methyl]piperazin-1-yl}pyridin-2-yl)-3-(pyridin-4-yl)-1H-pyrazol-4-yl]-2,5-difluorophenyl}-3-fluoropyrrolidine-1-sulfonamide]
DC50 (BRAF D594G; [1]): < 10 nM | Dmax (BRAF D594G; [2]): > 70% | DC50 (BRAF G466V; [3]): < 10 nM | Dmax (BRAF G466V; [4]): > 70% | DC50 (BRAF V600E; [5]): < 10 nM | Dmax (BRAF V600E; [6]): > 70% | DC50 (BRAF G469A; [7]): 10 to 50 nM | Dmax (BRAF G469A; [8]): 30 to 70%

CCC(C)S(=O)(=O)Nc1cc(Cl)cc(-c2cn(-c3ccc(N4CCN(CC5CCN(c6ccc([C@H]7CCC(=O)NC7=O)cn6)CC5)CC4)cc3)nc2-c2ccncc2)c1F (mixture of isomers) [Compound 327, (RS)—N-(5-chloro-3-(1-(4-(4-((1-(5-((R)-2,6-dioxopiperidin-3-yl)pyridin-2-yl)piperidin-4-yl)methyl)piperazin-1-yl)phenyl)-3-(pyridin-4-yl)-1H-pyrazol-4-yl)-2-fluorophenyl)butane-2-sulfonamide]
DC50 (BRAF D594G; [1]): < 10 nM | Dmax (BRAF D594G; [2]): > 70% | DC50 (BRAF G466V; [3]): < 10 nM | Dmax (BRAF G466V; [4]): > 70% | DC50 (BRAF V600E; [5]): < 10 nM | Dmax (BRAF V600E; [6]): > 70% | DC50 (BRAF G469A; [7]): 10 to 50 nM | Dmax (BRAF G469A; [8]): > 70%

CCCS(=O)(=O)Nc1cccc(-c2nc(C(C)(C)C)sc2-c2ccnc(NCC(C)(C)C3CCN(CC4CCN(c5ccc(C(=O)N[C@H]6CCC(=O)NC6=O)nc5)CC4)CC3)n2)c1F [Compound 146, 5-{4-[(4-{1-[(4-{2-tert-butyl-4-[2-fluoro-3-(propane-1-sulfonamido)phenyl]-1,3-thiazol-5-yl}pyrimidin-2-yl)amino]-2-methylpropan-2-yl}piperidin-1-yl)methyl]piperidin-1-yl}-N-[(3S)-2,6-dioxopiperidin-3-yl]pyridine-2-carboxamide]
DC50 (BRAF D594G; [9]): > 500 nM | Dmax (BRAF D594G; [10]): 30 to 70% | DC50 (BRAF G466V; [11]): < 10 nM | Dmax (BRAF G466V; [12]): 30 to 70% | DC50 (BRAF V600E; [13]): 50 to 500 nM | Dmax (BRAF V600E; [14]): 30 to 70% | DC50 (BRAF G469A; [15]): > 500 nM | Dmax (BRAF G469A; [16]): 30 to 70%

CCCS(=O)(=O)Nc1cccc(-c2nc(C(C)(C)C)sc2-c2ccnc(Nc3ccc(N4CCN(C(=O)C5CCN(c6ccc(C7CCC(=O)NC7=O)cn6)CC5)CC4)c(F)c3)n2)c1F (racemic) [Compound 57, Rac-N-(3-{2-tert-butyl-5-[2-({4-[4-(1-{5-[(3R)-2,6-dioxopiperidin-3-yl]pyridin-2-yl}piperidine-4-carbonyl)piperazin-1-yl]-3-fluorophenyl}amino)pyrimidin-4-yl]-1,3-thiazol-4-yl}-2-fluorophenyl)propane-1-sulfonamide]
DC50 (BRAF D594G; [9]): > 500 nM | Dmax (BRAF D594G; [10]): 30 to 70% | DC50 (BRAF G466V; [11]): > 500 nM | Dmax (BRAF G466V; [12]): 30 to 70% | DC50 (BRAF V600E; [13]): < 10 nM | Dmax (BRAF V600E; [14]): > 70% | DC50 (BRAF G469A; [15]): > 500 nM | Dmax (BRAF G469A; [16]): 30 to 70%

O=C1CC[C@@H](c2ccc(N3CCC(CN4CCN(c5ccc(-n6cc(-c7cc(Cl)cc(NS(=O)(=O)N8CCCC8)c7F)c(-c7ccncc7)n6)nc5)CC4)CC3)nc2)C(=O)N1 [Compound 383, N-{5-chloro-3-[1-(5-{4-[(1-{5-[(3S)-2,6-dioxopiperidin-3-yl]pyridin-2-yl}piperidin-4-yl)methyl]piperazin-1-yl}pyridin-2-yl)-3-(pyridin-4-yl)-1H-pyrazol-4-yl]-2-fluorophenyl}pyrrolidine-1-sulfonamide]
DC50 (BRAF D594G; [1]): < 10 nM | Dmax (BRAF D594G; [2]): > 70% | DC50 (BRAF G466V; [3]): < 10 nM | Dmax (BRAF G466V; [4]): > 70% | DC50 (BRAF V600E; [5]): < 10 nM | Dmax (BRAF V600E; [6]): > 70% | DC50 (BRAF G469A; [7]): 10 to 50 nM | Dmax (BRAF G469A; [8]): > 70%

O=C1CC[C@H](c2ccc(N3CCC(CN4CCN(c5ccc(-n6cc(-c7cc(Cl)cc(NS(=O)(=O)N8CC[C@@H](F)C8)c7F)c(-c7ccncc7)n6)nc5)CC4)CC3)nc2)C(=O)N1 [Compound 297, (3R)—N-{5-chloro-3-[1-(5-{4-[(1-{5-[(3R)-2,6-dioxopiperidin-3-yl]pyridin-2-yl}piperidin-4-yl)methyl]piperazin-1-yl}pyridin-2-yl)-3-(pyridin-4-yl)-1H-pyrazol-4-yl]-2-fluorophenyl}-3-fluoropyrrolidine-1-sulfonamide]
DC50 (BRAF D594G; [1]): < 10 nM | Dmax (BRAF D594G; [2]): > 70% | DC50 (BRAF G466V; [3]): < 10 nM | Dmax (BRAF G466V; [4]): > 70% | DC50 (BRAF V600E; [5]): < 10 nM | Dmax (BRAF V600E; [6]): > 70% | DC50 (BRAF G469A; [7]): < 10 nM | Dmax (BRAF G469A; [8]): > 70%

O=C1CCC(c2cc(F)c(N3CCC(CN4CCN(c5ccc(-n6cc(-c7cc(Cl)cc(NS(=O)(=O)N8CCCC8)c7F)c(-c7ccncc7)n6)cc5)CC4)CC3)cc2F)C(=O)N1 (racemic) [Compound 386, Rac-N-{5-chloro-3-[1-(4-{4-[(1-{4-[(3R)-2,6-dioxopiperidin-3-yl]-2,5-difluorophenyl}piperidin-4-yl)methyl]piperazin-1-yl}phenyl)-3-(pyridin-4-yl)-1H-pyrazol-4-yl]-2-fluorophenyl}pyrrolidine-1-sulfonamide]
DC50 (BRAF D594G; [1]): 10 to 50 nM | Dmax (BRAF D594G; [2]): 30 to 70% | DC50 (BRAF G466V; [3]): 10 to 50 nM | Dmax (BRAF G466V; [4]): > 70% | DC50 (BRAF V600E; [5]): 10 to 50 nM | Dmax (BRAF V600E; [6]): > 70% | DC50 (BRAF G469A; [7]): 50 to 500 nM | Dmax (BRAF G469A; [8]): 30 to 70%
